Patent US20250114335A1, “METHODS AND COMPOSITIONS FOR THE TREATMENT OF EPILEPSY” (ARIZONA BOARD OF REGENTS ON BEHALF OF THE UNIVERSITY OF …, priority 2022, published 2025)
Where “and” joins values, the source holds several entries; their conditions need not be identical. Identical values can stand only once.

What was measured:
[1] = system: B6-D/+ (Scn8a-N1768D) adult mice; assay: Survival and seizure frequency, adult B6-D/+ mice followed for the entire lifespan; assay type: in vivo, mouse; parameters: reduction in post-onset seizure frequency: concentration or dose not given beside the values; conditions: for observed standard effect size, Kaplan-Meier survival: treated versus untreated
Source text: (§1) Mouse strains: The C57BL/6J-N1768D congenic mouse (B6-D/+) was used for phenotyping, RNAseq, and BBB studies. In addition, a hybrid strain that was produced by backcross breeding to transfer the Scn8a-N1768D allele from the B6 to the C3H/HeJ strain background was used to further assess the effect of CND on survival and seizure frequency. After constructing an F1 by crossing male B6-D/+ heterozygotes to female C3H/HeJ, five rounds of backcrossing (N6) produced a […] and 98.5% C3H/HeJ-N1768D line (C3H-D/+). Sister-brother mating maintained the 98.5% C3H background. […] C3H-D/D mice have a delayed seizure onset (˜40-45 days) and an extended survival (65-70 days) with intermittent bouts of TCs (FIG. 1A).
(§2) Phenotyping: Female and male mice on both the B6 and C3H backgrounds were housed in sex-specific groups of 3-4 per cage in a pathogen-free mouse facility with a 14 h light/10 h dark cycle (lights turned on at 5 am). A 24/7 video monitoring system was utilized to collect seizure data, with infrared illumination to monitor behavior during the dark period. Seizures were counted as individual TCs. Adult mice were followed from the age of 6 weeks, a period of time well before seizure onset, in order to identify the day of seizure onset. A seizure bout was defined as a cluster of seizures on consecutive days, and a gap as a seizure-free period of 3 days or more.
(§3) Preparation of CND suspension for injections and oral dosing: Juvenile B6-D/D and adult B6-D/+ mice were given subcutaneous (s.c.) injections with either CND (2-4 mg/kg/day; doses that fall within the FDA-approved range for CND in both adults and children) or vehicle (VEH) (Sigma-Aldrich) (FIG. 1B). Oral dosing of adults was performed by thoroughly mixing 160 μl of suspension containing 1.28 mg of CND or VEH with 5 g of pure (organic) peanut butter in a petri dish. Mice were given 1 g pellet per mouse each day. Pellets were weighed each day to record the amount consumed, and 24/7 video was used to verify that each mouse was consuming the pellet. An average of 0.79 g (±0.36 g) was consumed by an adult mouse (˜20-25 g), corresponding to 9.1±4.2 mg/kg/day. No correlations were found for the amount of CND consumed and lifetime survival or number of TCs.
Survival and seizure frequency studies: B6-D/D mice were injected with CND (n=10) or VEH (n=10) at 15 days of age (P15) and followed to monitor TCs by 24/7 video recording until death (FIG. 1B). A separate set of 10 B6-D/D mice was administered a daily s.c. injection of 25 mg/kg/day phenytoin (PHT) suspension or VEH (US Pharmacopeia, Sigma-Aldrich). […] Mice were monitored for seizures by 24/7 video recording until the time of death.

[2] = system: C3H-D/D (Scn8a-N1768D) adult mice; assay: Survival and seizure frequency, adult C3H-D/D mice followed until death; assay type: in vivo, mouse; conditions: for #Days survived postTC / #TCs / #TCs/day (PostTC) / #gaps (av) / Age at Death / Age at Onset / gap days / mean gap length: Treated; for observed standard effect size, Kaplan-Meier survival: treated versus untreated
Source text: as §1, §2, §3
Data for the untreated mice were previously reported. Table 1 also provides C3H-D/D summary statistics for female untreated (N=15) and treated (N=15) and male untreated (N=27) and treated (N=16) monitored until the time of death.

Q: How did the “increase in survival, treated versus untreated” value (shortened to “increase in survival”) ([1]; B6-D/+ females) turn out when `CCOc1nc2cccc(C(=O)O)c2n1Cc1ccc(-c2ccccc2-c2nnn[nH]2)cc1` [CND, candesartan] was run?
A: 34.7%

Q: What about the “reduction in post-onset seizure frequency” value (shortened to “reduction”) ([1]; B6-D/+ females) of the same compound?
A: 88.9%

Q: What about the “observed standard effect size, Kaplan-Meier survival” value (from here on “observed standard effect size”) ([1]; B6-D/+ females) of the same compound?
A: 0.59

Q: And the “increase in survival” value ([1]; B6-D/+ males)?
A: 48.9%

Q: And the “mean days surviving longer than untreated” value ([1]; B6-D/+ males)?
A: 44.5 days

Q: And the “reduction” value ([1]; B6-D/+ males)?
A: 56.5% and 59.1%

Q: What about the “observed standard effect size” value ([1]; B6-D/+ males) of the same compound?
A: 0.69

Q: And the “#Days survived postTC” value ([1]; B6 Females (D/+), Treated)?
A: 76.4 days

Q: And the “#TCs” value ([1]; B6 Females (D/+), Treated)?
A: 14.3 TCs

Q: What about the “#TCs/day (PostTC)” value ([1]; B6 Females (D/+), Treated) of the same compound?
A: 0.24 TCs/day

Q: What about the “Age at Onset” value ([1]; B6 Females (D/+), Treated) of the same compound?
A: 91.2 days

Q: What about the gap days ([1]; B6 Females (D/+), Treated) of the same compound?
A: 34.0 days

Q: What about the mean gap length ([1]; B6 Females (D/+), Treated) of the same compound?
A: 8.3 days

Q: And the “Age at Death” value ([1]; B6 Females (D/+), Treated, oral from seizure onset)?
A: 167.6 ± 19.1 days and 167.6 days

Q: And the “#gaps (av)” value ([1]; B6 Females (D/+), Treated, gap = seizure-free period of 3 days or more)?
A: 4.0

Q: And the “#Days survived postTC” value ([1]; B6 Males (D/+), Treated Early)?
A: 16.8 days

Q: What about the “#TCs” value ([1]; B6 Males (D/+), Treated Early) of the same compound?
A: 18.9 TCs

Q: What about the “#TCs/day (PostTC)” value ([1]; B6 Males (D/+), Treated Early) of the same compound?
A: 2.4 TCs/day

Q: And the “#gaps (av)” value ([1]; B6 Males (D/+), Treated Early)?
A: 2.6

Q: And the “Age at Death” value ([1]; B6 Males (D/+), Treated Early)?
A: 121.6 days

Q: What about the “Age at Onset” value ([1]; B6 Males (D/+), Treated Early) of the same compound?
A: 99.2 days

Q: What about the gap days ([1]; B6 Males (D/+), Treated Early) of the same compound?
A: 15.0 days

Q: And the mean gap length ([1]; B6 Males (D/+), Treated Early)?
A: 6.7 days

Q: And the “#Days survived postTC” value ([1]; B6 Males (D/+), Treated Late)?
A: 52.7 days

Q: What about the “#TCs” value ([1]; B6 Males (D/+), Treated Late) of the same compound?
A: 43.6 TCs

Q: And the “#TCs/day (PostTC)” value ([1]; B6 Males (D/+), Treated Late)?
A: 1.0 TCs/day

Q: What about the “#gaps (av)” value ([1]; B6 Males (D/+), Treated Late) of the same compound?
A: 4.0

Q: What about the “Age at Onset” value ([1]; B6 Males (D/+), Treated Late) of the same compound?
A: 81.3 days

Q: And the gap days ([1]; B6 Males (D/+), Treated Late)?
A: 37.8 days

Q: And the mean gap length ([1]; B6 Males (D/+), Treated Late)?
A: 12.4 days

Q: What about the “Age at Death” value ([1]; B6 Males (D/+), Treated Late (oral from seizure onset)) of the same compound?
A: 135.8 ± 28.4 days and 135.8 days

Q: What about the “#Days survived postTC” value ([2]; C3H Females (D/D)) of the same compound?
A: 68.9 days

Q: What about the “#TCs” value ([2]; C3H Females (D/D)) of the same compound?
A: 30.1 TCs

Q: And the “#TCs/day (PostTC)” value ([2]; C3H Females (D/D))?
A: 0.51 TCs/day

Q: And the “#gaps (av)” value ([2]; C3H Females (D/D))?
A: 7.5

Q: And the “Age at Death” value ([2]; C3H Females (D/D))?
A: 117.4 ± 28.0 days and 117.4 days

Q: What about the “Age at Onset” value ([2]; C3H Females (D/D)) of the same compound?
A: 48.5 days

Q: What about the gap days ([2]; C3H Females (D/D)) of the same compound?
A: 44.0 days

Q: What about the mean gap length ([2]; C3H Females (D/D)) of the same compound?
A: 5.8 days

Q: And the “#Days survived postTC” value ([2]; C3H Males (D/D))?
A: 68.9 days

Q: And the “#TCs” value ([2]; C3H Males (D/D))?
A: 37.4 TCs

Q: What about the “#TCs/day (PostTC)” value ([2]; C3H Males (D/D)) of the same compound?
A: 0.57 TCs/day

Q: What about the “#gaps (av)” value ([2]; C3H Males (D/D)) of the same compound?
A: 9.8

Q: And the “Age at Death” value ([2]; C3H Males (D/D))?
A: 117.1 ± 20.4 days and 117.1 days

Q: What about the “Age at Onset” value ([2]; C3H Males (D/D)) of the same compound?
A: 48.1 ± 5.1 days and 48.1 days

Q: And the gap days ([2]; C3H Males (D/D))?
A: 44.4 days

Q: What about the mean gap length ([2]; C3H Males (D/D)) of the same compound?
A: 4.7 days

Q: And the “increase in survival” value ([2]; C3H-D/D females)?
A: 47.5%

Q: What about the “reduction” value ([2]; C3H-D/D females) of the same compound?
A: 78.4%

Q: And the “observed standard effect size” value ([2]; C3H-D/D females)?
A: 0.83

Q: And the “increase in survival” value ([2]; C3H-D/D males)?
A: 49.2%

Q: And the “reduction” value ([2]; C3H-D/D males)?
A: 48.0%

Q: What about the “observed standard effect size” value ([2]; C3H-D/D males) of the same compound?
A: 0.79
